Assay results: patent US20180000085A1, “USE OF PICOLINAMIDE COMPOUNDS WITH FUNGICIDAL ACTIVITY” (DOW AGROSCIENCES LLC, priority 2014, published 2018)

Experiments:
Zymoseptoria tritici = experiment: Leaf blotch of wheat (SEPTTR) disease control on wheat seedlings; format: in vivo; parameters: key to SEPTTR 1DP, HV activity at 100 ppm (% control rating) / SEPTTR 3DC, HV activity at 100 ppm (% control rating) / SEPTTR disease control, 1DP / SEPTTR disease control, 3DC / SEPTTR 1DP disease control rating, HV activity / SEPTTR 3DC disease control rating, HV activity / SEPTTR 3DC, LV activity at 125.1 g/H (% Control rating) / SEPTTR 1DP, LV activity at 125.1 g/H (% Control rating) / SEPTTR 1DP disease control rating, LV activity at 125.1 g/H / SEPTTR 3DC disease control rating, LV activity at 125.1 g/H / SEPTTR 3DC disease control rating, HV activity at 100 ppm / SEPTTR 1DP disease control rating, HV activity at 100 ppm / HV activity at 100 ppm SEPTTR 3DC (disease control rating) / HV activity at 100 ppm SEPTTR 1DP (disease control rating) / LV activity at 125.1 g/H SEPTTR 1DP (disease control rating) / LV activity at 125.1 g/H SEPTTR 3DC (disease control rating): A: > 80; B: ≤ 80; C: Not Tested; D: No Activity Observed in the Reported Assay; conditions: low volume application, 125.1 g/H; for SEPTTR 1DP disease control rating, LV activity at 125.1 g/H: 1 day protectant; for SEPTTR 3DC disease control rating, LV activity at 125.1 g/H: 3 day curative
Puccinia triticina = experiment: Wheat brown rust (PUCCRT) disease control on wheat seedlings; format: in vivo; parameters: key to PUCCRT 3DC, HV activity at 100 ppm (% control rating) / PUCCRT disease control, 3DC / PUCCRT 1DP disease control rating, HV activity / PUCCRT 3DC disease control rating, HV activity / PUCCRT 3DC, LV activity at 125.1 g/H (% Control rating) / PUCCRT 1DP, LV activity at 125.1 g/H (% Control rating) / PUCCRT 3DC disease control rating, LV activity at 125.1 g/H / PUCCRT 1DP disease control rating, LV activity at 125.1 g/H / PUCCRT 3DC disease control rating, HV activity at 100 ppm / PUCCRT 1DP disease control rating, HV activity at 100 ppm / HV activity at 100 ppm PUCCRT 3DC (disease control rating) / LV activity at 125.1 g/H PUCCRT 1DP (disease control rating) / LV activity at 125.1 g/H PUCCRT 3DC (disease control rating): A: > 80; B: ≤ 80; C: Not Tested; D: No Activity Observed in the Reported Assay; conditions: low volume application, 125.1 g/H; for PUCCRT 1DP disease control rating, LV activity at 125.1 g/H: 1 day protectant; for PUCCRT 3DC disease control rating, LV activity at 125.1 g/H: 3 day curative

SMILES	SEPTTR 1DP disease control rating, LV activity at 125.1 g/H (Zymoseptoria tritici)	SEPTTR 3DC disease control rating, LV activity at 125.1 g/H (Zymoseptoria tritici)	PUCCRT 1DP disease control rating, LV activity at 125.1 g/H (Puccinia triticina)	PUCCRT 3DC disease control rating, LV activity at 125.1 g/H (Puccinia triticina)
CC(=O)OCOc1c(Cl)ccnc1C(=O)NC(C)C(=O)OC(C)C(Oc1ccccc1)C(C)C (centres unmarked) [Cmpd 679]	D	B (≤ 80)	B (≤ 80)	D
CCC(CC)C(Oc1cccc(F)c1)C(C)OC(=O)C(CC(C)C)NC(=O)c1nccc(OC)c1OCOC(C)=O (centres unmarked) [Cmpd 680]	B (≤ 80)	B (≤ 80)	D	B (≤ 80)
CCC(CC)C(Oc1ccc(Cl)cc1)C(C)OC(=O)C(CC(C)C)NC(=O)c1nccc(OC)c1OCOC(C)=O (centres unmarked) [Cmpd 681]	D	B (≤ 80)	D	D
CCC(CC)C(Oc1cc(F)ccc1F)C(C)OC(=O)C(CC(C)C)NC(=O)c1nccc(OC)c1OCOC(C)=O (centres unmarked) [Cmpd 682]	B (≤ 80)	B (≤ 80)	B (≤ 80)	B (≤ 80)
CCC(CC)C(Oc1cc(F)cc(Cl)c1)C(C)OC(=O)C(CC(C)C)NC(=O)c1nccc(OC)c1OCOC(C)=O (centres unmarked) [Cmpd 683]	D	B (≤ 80)	D	D
CCC(CC)C(Oc1ccc(Cl)cc1Cl)C(C)OC(=O)C(CC(C)C)NC(=O)c1nccc(OC)c1OCOC(C)=O (centres unmarked) [Cmpd 684]	D	D	B (≤ 80)	D
CCC(CC)C(Oc1cccc(F)c1)C(C)OC(=O)C(CC(C)C)NC(=O)c1nccc(OC)c1OC(C)=O (centres unmarked) [Cmpd 685]	D	B (≤ 80)	B (≤ 80)	D
CCC(CC)C(Oc1ccc(Cl)cc1)C(C)OC(=O)C(CC(C)C)NC(=O)c1nccc(OC)c1OC(C)=O (centres unmarked) [Cmpd 686]	D	B (≤ 80)	D	D
CCC(CC)C(Oc1cc(F)ccc1F)C(C)OC(=O)C(CC(C)C)NC(=O)c1nccc(OC)c1OC(C)=O (centres unmarked) [Cmpd 687]	D	B (≤ 80)	D	B (≤ 80)
CCC(CC)C(Oc1cc(F)cc(Cl)c1)C(C)OC(=O)C(CC(C)C)NC(=O)c1nccc(OC)c1OC(C)=O (centres unmarked) [Cmpd 688]	D	B (≤ 80)	D	D
CCC(CC)C(Oc1ccc(Cl)cc1Cl)C(C)OC(=O)C(CC(C)C)NC(=O)c1nccc(OC)c1OC(C)=O (centres unmarked) [Cmpd 689]	D	B (≤ 80)	D	D
